Experimental data taken from patent publication US8350079B2, “Treprostinil formulation” (United Therapeutics Corporation, priority 2008, dated 2013).

Test: Accelerated stability of treprostinil monohydrate at 25, 30 and 40° C. (Lot #01M07033)
Type: physicochemical
Procedure: III. Accelerated Stability Data at 30 and 40° C. (Lot #01M07033).
In the present experiment, 500 mg Treprostinil monohydrate samples were stored in Nalgene 125 ml, HDPE bottles. The experimental procedure used in this experiment was the same as the described above procedure for lot D-1007-089.

CCCCC[C@H](O)CC[C@@H]1[C@H]2Cc3cccc(OCC(=O)O)c3C[C@H]2C[C@H]1O [TREPROSTINIL Lot# D-1007-089, treprostinil monohydrate]
3AU90 (3-Months, 25° C./60% RH): <0.05%
750W93 (3-Months, 25° C./60% RH): 0.07%
751W93 (3-Months, 25° C./60% RH): <0.05%
Impurity 1 (RRT: 0.58) (3-Months, 25° C./60% RH): 0.05%
Total impurities (3-Months, 25° C./60% RH): 0.4%
UT-15 Assay (3-Months, 25° C./60% RH): 99.5%
UT-15 Ethyl Ester (3-Months, 25° C./60% RH): 0.2%
Water, KF (3-Months, 25° C./60% RH): 4.8%
3AU90 (3-Months, 30° C./65% RH): <0.05%
750W93 (3-Months, 30° C./65% RH): 0.07%
751W93 (3-Months, 30° C./65% RH): <0.05%
Impurity 1 (RRT: 0.58) (3-Months, 30° C./65% RH): 0.05%
Total impurities (3-Months, 30° C./65% RH): 0.4%
UT-15 Assay (3-Months, 30° C./65% RH): 99.5%
UT-15 Ethyl Ester (3-Months, 30° C./65% RH): 0.2%
Water, KF (3-Months, 30° C./65% RH): 4.8%
3AU90 (3-Months, 40 C./75% RH): <0.05%
750W93 (3-Months, 40 C./75% RH): 0.08%
751W93 (3-Months, 40 C./75% RH): <0.05%
Impurity 1 (RRT: 0.58) (3-Months, 40 C./75% RH): 0.05%
Total impurities (3-Months, 40 C./75% RH): 0.4%
UT-15 Assay (3-Months, 40 C./75% RH): 99.4%
UT-15 Ethyl Ester (3-Months, 40 C./75% RH): 0.2%
Water, KF (3-Months, 40 C./75% RH): 4.8%
3AU90 (6-Months, 25° C./60% RH): 0.06%
750W93 (6-Months, 25° C./60% RH): 0.07%
751W93 (6-Months, 25° C./60% RH): <0.05%
Total impurities (6-Months, 25° C./60% RH): 0.4%
UT-15 Assay (6-Months, 25° C./60% RH): 99.0%
UT-15 Ethyl Ester (6-Months, 25° C./60% RH): 0.2%
Water, KF (6-Months, 25° C./60% RH): 4.7%
3AU90 (6-Months, 30° C./65% RH): 0.06%
750W93 (6-Months, 30° C./65% RH): 0.07%
751W93 (6-Months, 30° C./65% RH): <0.05%
Total impurities (6-Months, 30° C./65% RH): 0.4%
UT-15 Assay (6-Months, 30° C./65% RH): 99.1%
UT-15 Ethyl Ester (6-Months, 30° C./65% RH): 0.2%
Water, KF (6-Months, 30° C./65% RH): 4.7%
3AU90 (6-Months, 40 C./75% RH): 0.07%
750W93 (6-Months, 40 C./75% RH): 0.09%
751W93 (6-Months, 40 C./75% RH): 0.05%
Total impurities (6-Months, 40 C./75% RH): 0.4%
UT-15 Assay (6-Months, 40 C./75% RH): 99.7%
UT-15 Ethyl Ester (6-Months, 40 C./75% RH): 0.2%
Water, KF (6-Months, 40 C./75% RH): 4.7%
3AU90 (12-Months, 25° C./60% RH): <0.05%
750W93 (12-Months, 25° C./60% RH): 0.08%
751W93 (12-Months, 25° C./60% RH): <0.05%
Impurity 1 (RRT: 0.58) (12-Months, 25° C./60% RH): 0.06%
Total impurities (12-Months, 25° C./60% RH): 0.4%
UT-15 Assay (12-Months, 25° C./60% RH): 99.8%
UT-15 Ethyl Ester (12-Months, 25° C./60% RH): 0.2%
Water, KF (12-Months, 25° C./60% RH): 4.7%
3AU90 (12-Months, 40 C./75% RH): <0.05%
750W93 (12-Months, 40 C./75% RH): 0.09%
751W93 (12-Months, 40 C./75% RH): 0.05%
Impurity 1 (RRT: 0.58) (12-Months, 40 C./75% RH): 0.05%
Total impurities (12-Months, 40 C./75% RH): 0.4%
UT-15 Assay (12-Months, 40 C./75% RH): 98.6%
UT-15 Ethyl Ester (12-Months, 40 C./75% RH): 0.2%
Water, KF (12-Months, 40 C./75% RH): 4.8%
3AU90 (Initial): 0.1%
750W93 (Initial): 0.08%
751W93 (Initial): <0.05%
Total impurities (Initial): 0.4%
UT-15 Assay (Initial): 98.7%
UT-15 Ethyl Ester (Initial): 0.2%
Water, KF (Initial): 4.5%
